Measurements from ChEMBL document CHEMBL1201862, “PubChem BioAssay data set” (2004).
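1) Cells in 96-well plates. 2) Compound, 48 h, 5 concentrations. 3) Linear interpolation between surrounding doses. 4) Unreached endpoint = highest concentration. GI50: concentration for 50% inhibition of growth.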 Active and inactive are the calls of the source. Cut-off read from the data, not from the text of the source: active = GI50 up to about 1.1 µM and inactive = higher. Peptide text beside a SMILES is read from it. * marks the point of attachment. Boc = CC(C)(C)OC(=O)*; OBn = c1ccc(CO*)cc1

How the values were obtained:
Assay in all cases: NCI-60 cell line screen, 48 h
786-0 = test system: 786-0
A549 = test system: A549
BT-549 = test system: BT-549
HL-60 = test system: HL-60
K562 = test system: K562
KM12 = test system: KM12
MCF7 = test system: MCF7
MDA-MB-231 = test system: MDA-MB-231
NCI-H522 = test system: NCI-H522
NCI/ADR-RES = test system: NCI/ADR-RES
OVCAR-3 = test system: OVCAR-3
RXF 393 = test system: RXF 393
SF-295 = test system: SF-295
SK-MEL-28 = test system: SK-MEL-28
SK-MEL-2 = test system: SK-MEL-2
SN12C = test system: SN12C
UO-31 = test system: UO-31
A498 = test system: A498
CCRF-CEM = test system: CCRF-CEM
SNB-75 = test system: SNB-75

Row | SMILES | GI50 (786-0) | GI50 (A549) | GI50 (BT-549) | GI50 (HL-60) | GI50 (K562) | GI50 (KM12) | GI50 (MCF7) | GI50 (MDA-MB-231) | GI50 (NCI-H522) | GI50 (NCI/ADR-RES) | GI50 (OVCAR-3) | GI50 (RXF 393) | GI50 (SF-295) | GI50 (SK-MEL-28) | GI50 (SK-MEL-2) | GI50 (SN12C) | GI50 (UO-31) | GI50 (A498) | GI50 (CCRF-CEM) | GI50 (SNB-75)
1 | CC(CO)(Nc1ccc([N+](=O)[O-])cc1[N+](=O)[O-])C(=O)O (stereo not drawn) | 71 µM (inactive) | 38.3 µM (inactive) | 29.5 µM (inactive) | 17.6 µM (inactive) | 19.1 µM (inactive) | 43.5 µM (inactive) | 17.5 µM (inactive) | 79.8 µM (inactive) | 18.7 µM (inactive) | 35.5 µM (inactive) | 22.2 µM (inactive) | 12.2 µM (inactive) | 68.9 µM (inactive) | 22.1 µM (inactive) | 20.7 µM (inactive) | 20.7 µM (inactive) | 15.9 µM (inactive) | – | – | –
2 | O=c1[nH]c2ccccc2c2oc(-c3ccccc3)nc12 | 23.6 µM (inactive) | 47.6 µM (inactive) | 31.2 µM (inactive) | – | 36.1 µM (inactive) | 50.5 µM (inactive) | 44.8 µM (inactive) | 17.3 µM (inactive) | 61.5 µM (inactive) | > 100 µM (inactive) | > 100 µM (inactive) | 20.4 µM (inactive) | 23.9 µM (inactive) | – | 24.2 µM (inactive) | 16.5 µM (inactive) | > 100 µM (inactive) | 27 µM (inactive) | 18.4 µM (inactive) | 20.2 µM (inactive)
3 | CN(C)CCCNc1ccnc2cccc([N+](=O)[O-])c12 | 14.1 µM (inactive) | 12.8 µM (inactive) | 21.8 µM (inactive) | 26.7 µM (inactive) | 29.4 µM (inactive) | 12.8 µM (inactive) | 10.7 µM (inactive) | 17.7 µM (inactive) | 7.96 µM (inactive) | – | 5.22 µM (inactive) | 25.5 µM (inactive) | 13.3 µM (inactive) | 14.3 µM (inactive) | 17.2 µM (inactive) | 15.8 µM (inactive) | 13.3 µM (inactive) | 15.5 µM (inactive) | 28.9 µM (inactive) | 24.1 µM (inactive)
4 | COc1cc2ncnc(NS(=O)(=O)c3cc4ccccc4s3)c2cc1OC | > 100 µM (inactive) | > 100 µM (inactive) | > 100 µM (inactive) | – | 56.1 µM (inactive) | > 100 µM (inactive) | > 100 µM (inactive) | > 100 µM (inactive) | 28.2 µM (inactive) | > 100 µM (inactive) | > 100 µM (inactive) | 29.8 µM (inactive) | > 100 µM (inactive) | – | > 100 µM (inactive) | 70.5 µM (inactive) | 76 µM (inactive) | 56.4 µM (inactive) | > 100 µM (inactive) | 47.8 µM (inactive)
5 | CC1=CC[C@@H]2[C@@H](CC[C@@]2(C)O)C(C)(C)[C@H]1CC[C@@H]1[C@@]2(C)CCC(=O)C(C)(C)O[C@@H]2CC[C@]1(C)O | 24.7 µM (inactive) | 24.7 µM (inactive) | 19 µM (inactive) | 16.9 µM (inactive) | – | 15.2 µM (inactive) | 37.3 µM (inactive) | 45.6 µM (inactive) | 18.5 µM (inactive) | 21.9 µM (inactive) | 37.7 µM (inactive) | – | 0.762 µM (active) | 31.2 µM (inactive) | 36.7 µM (inactive) | 22.4 µM (inactive) | 22.5 µM (inactive) | 31 µM (inactive) | 23.3 µM (inactive) | 65.6 µM (inactive)
6 | CNc1nc(SC)nc2c1c(N)nn2C | > 100 µM (inactive) | > 100 µM (inactive) | > 100 µM (inactive) | – | > 100 µM (inactive) | > 100 µM (inactive) | – | > 100 µM (inactive) | > 100 µM (inactive) | > 100 µM (inactive) | > 100 µM (inactive) | > 100 µM (inactive) | > 100 µM (inactive) | > 100 µM (inactive) | > 100 µM (inactive) | > 100 µM (inactive) | > 100 µM (inactive) | 99.5 µM (inactive) | > 100 µM (inactive) | 95.7 µM (inactive)
7 | O=C(O)/C(=C/C(=O)c1ccc(Cl)cc1)NNc1ccc([N+](=O)[O-])cc1[N+](=O)[O-] | 27 µM (inactive) | 40.6 µM (inactive) | 23.2 µM (inactive) | 49.3 µM (inactive) | 36.9 µM (inactive) | 51.8 µM (inactive) | 52.4 µM (inactive) | 36.8 µM (inactive) | 21.6 µM (inactive) | 45.8 µM (inactive) | 33.3 µM (inactive) | – | 41.4 µM (inactive) | 43.5 µM (inactive) | 31.7 µM (inactive) | 41.8 µM (inactive) | 20.8 µM (inactive) | > 100 µM (inactive) | 23.6 µM (inactive) | –
8 | O=[N+]([O-])c1ccc(-n2nc3ccc4nonc4c3n2)cc1 | 28.1 µM (inactive) | 72.1 µM (inactive) | 22.7 µM (inactive) | > 100 µM (inactive) | > 100 µM (inactive) | 94.8 µM (inactive) | 20.4 µM (inactive) | > 100 µM (inactive) | 28.8 µM (inactive) | 56.1 µM (inactive) | 71.4 µM (inactive) | – | 28 µM (inactive) | 46.2 µM (inactive) | 47.9 µM (inactive) | > 100 µM (inactive) | 21.3 µM (inactive) | – | > 100 µM (inactive) | 11.1 µM (inactive)
9 | COc1cc(C2S/C(=C/c3ccccc3)C(=O)N2Cc2ccccc2)cc(OC)c1OC (stereo not drawn) | 41.1 µM (inactive) | 27.3 µM (inactive) | 54.5 µM (inactive) | 21.2 µM (inactive) | 21.8 µM (inactive) | 36.1 µM (inactive) | 61.1 µM (inactive) | > 100 µM (inactive) | 16.1 µM (inactive) | 26.4 µM (inactive) | – | – | 28.5 µM (inactive) | 88.9 µM (inactive) | 39.1 µM (inactive) | 39.2 µM (inactive) | 24.4 µM (inactive) | 45.5 µM (inactive) | 23.1 µM (inactive) | 18.5 µM (inactive)
10 | CC12CCC(/C(=N/c3ccc([N+](=O)[O-])cc3)C1=O)C2(C)C (stereo not drawn) | 16.8 µM (inactive) | 36.1 µM (inactive) | 36.6 µM (inactive) | – | 19 µM (inactive) | 19.9 µM (inactive) | > 100 µM (inactive) | 18.3 µM (inactive) | – | 23.3 µM (inactive) | 21.4 µM (inactive) | 13.9 µM (inactive) | 27.1 µM (inactive) | 12 µM (inactive) | 19 µM (inactive) | – | 17.8 µM (inactive) | > 100 µM (inactive) | – | –
11 | CC(NC(=O)Cc1ccccc1)NC(=O)C(C)C(=O)Nc1ccccc1 (stereo not drawn) | 52.2 µM (inactive) | > 100 µM (inactive) | 43.5 µM (inactive) | > 10 µM (inactive) | > 100 µM (inactive) | > 100 µM (inactive) | > 100 µM (inactive) | 65.6 µM (inactive) | 23.1 µM (inactive) | > 100 µM (inactive) | – | 47.1 µM (inactive) | > 100 µM (inactive) | – | > 100 µM (inactive) | 36.1 µM (inactive) | 43.7 µM (inactive) | – | – | 24 µM (inactive)
12 | O=C1OC(CS(=O)(=O)c2ccccc2)CC1O (stereo not drawn) | > 100 µM (inactive) | > 100 µM (inactive) | 72.8 µM (inactive) | – | > 100 µM (inactive) | > 100 µM (inactive) | > 100 µM (inactive) | > 100 µM (inactive) | 53.1 µM (inactive) | > 100 µM (inactive) | > 100 µM (inactive) | > 100 µM (inactive) | > 100 µM (inactive) | > 100 µM (inactive) | > 100 µM (inactive) | > 100 µM (inactive) | 55.6 µM (inactive) | > 100 µM (inactive) | > 100 µM (inactive) | –
13 | COc1ccc2c(c1)nc1n2C(c2c(Cl)cccc2Cl)SC1 (stereo not drawn) | 21.3 µM (inactive) | 18 µM (inactive) | > 67.3 µM (inactive) | – | > 100 µM (inactive) | 12.4 µM (inactive) | 5.68 µM (inactive) | 29.3 µM (inactive) | – | 4.12 µM (inactive) | > 20.5 µM (inactive) | – | 5.71 µM (inactive) | 25.9 µM (inactive) | > 20.7 µM (inactive) | > 57.5 µM (inactive) | 46.5 µM (inactive) | 46.5 µM (inactive) | – | > 28.2 µM (inactive)
14 | Cc1sc2c(c1C)/C(=N\O)c1cccn1-2 | 20.1 µM (inactive) | 44.5 µM (inactive) | 42.1 µM (inactive) | – | – | 31.6 µM (inactive) | 39.1 µM (inactive) | 52.8 µM (inactive) | 19 µM (inactive) | 53.3 µM (inactive) | 42.9 µM (inactive) | 23.2 µM (inactive) | 54.7 µM (inactive) | 93.3 µM (inactive) | 45.2 µM (inactive) | 38.5 µM (inactive) | 31.6 µM (inactive) | 24.2 µM (inactive) | 3.6 µM (inactive) | 16.2 µM (inactive)
15 | CC(C)CC(NC(=O)OC(C)(C)C)C(=O)NC(CC(=O)OCc1ccccc1)C(N)=O (stereo not drawn) (Boc-Leu-Asp(OBn)-NH2; configuration not given here) | > 100 µM (inactive) | > 100 µM (inactive) | > 100 µM (inactive) | – | > 100 µM (inactive) | > 100 µM (inactive) | > 100 µM (inactive) | > 100 µM (inactive) | > 100 µM (inactive) | > 100 µM (inactive) | > 100 µM (inactive) | > 100 µM (inactive) | > 100 µM (inactive) | > 100 µM (inactive) | > 100 µM (inactive) | > 100 µM (inactive) | > 100 µM (inactive) | > 100 µM (inactive) | – | 17.3 µM (inactive)
